Tests used:
[1] = target: Botulinum neurotoxin type A (Clostridium botulinum, UniProt P0DPI0)
[2] = Toxicity against mouse Neuro2a cells at =>5 uM; format: cell-based; details: n2a

Chain of Botulinum neurotoxin type A (P0DPI0 2-448 limits assumed): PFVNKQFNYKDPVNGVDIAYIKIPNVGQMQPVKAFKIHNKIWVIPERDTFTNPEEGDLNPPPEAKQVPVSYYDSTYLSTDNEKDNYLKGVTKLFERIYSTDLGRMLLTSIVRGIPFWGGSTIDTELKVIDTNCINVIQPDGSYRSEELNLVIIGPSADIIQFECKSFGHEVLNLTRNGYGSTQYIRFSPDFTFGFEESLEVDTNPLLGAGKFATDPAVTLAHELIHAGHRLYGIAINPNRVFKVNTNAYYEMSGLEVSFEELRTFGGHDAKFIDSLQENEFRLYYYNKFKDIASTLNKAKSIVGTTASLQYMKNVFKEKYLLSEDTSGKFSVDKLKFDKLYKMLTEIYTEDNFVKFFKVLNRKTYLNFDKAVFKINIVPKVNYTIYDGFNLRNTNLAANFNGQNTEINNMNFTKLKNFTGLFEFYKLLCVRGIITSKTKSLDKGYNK

## CCC1CN(C(=O)/C=C/c2ccccc2)CC(=O)N1Cc1ccc(C)cc1 (stereo not drawn)
[1]
  IC50: 12.5 µM

## COc1ccc(CCNC(=O)CN(CC(=O)N[C@H]2C[C@@H]2c2ccccc2)C(=O)Cn2c(C(=O)N[C@H]3CCCC[C@@H]3NC(=O)c3cc4ccccc4n3CC(=O)N(CC(=O)NCCc3ccc(OC)cc3)CC(=O)N[C@@H]3C[C@H]3c3ccccc3)cc3ccccc32)cc1
[1]
  IC50: 7.6 µM

## O=C(/C=C/c1ccc(Cl)cc1Cl)NO [CINNAMIC ACID HYDROXAMATE]
[2]
  Activity: Toxic
